Reference: article PMC4231793 (Biology of blood and marrow transplantation : journal of …, 2012)
Where “and” joins values, the source holds several entries; their conditions need not be identical. Identical values can stand only once. Like-named read-outs stand apart in the source and are kept apart here.

What was measured:
[1] = Noncompartmental pharmacokinetic analysis of whole-blood sirolimus; assay type: in vivo, human; conditions: for concentration at 0 h: Co (trough concentration prior to oral dosing)
[2] = Population pharmacokinetic analysis; assay type: in vivo, human
[3] = assay type: in vivo, human
[4] = cited from earlier work; for AUC0–24: ref [9],[14]; for Half-life: ref [9]; for t1/2: pediatric renal transplant patients, every-12-hour schedule, calcineurin inhibitor-free protocol, ref [8]
[5] = ref [10], cited from earlier work
[6] = system: CYP3A4; conditions: compared with itraconazole, voriconazole, and posaconazole; ref [7],[23]; cited from earlier work
[7] = human, whole blood, oral, 2.5 mg/m^2/day
[8] = patients receiving concomitant fluconazole (i.v. or oral)
[9] = population estimate ± standard error
[10] = at 180 days, sirolimus, tacrolimus and methotrexate GVHD prophylaxis
[11] = of 63 subjects in the clinical study, sirolimus with tacrolimus

Compound CO[C@H]1C[C@@H]2CC[C@@H](C)[C@@](O)(O2)C(=O)C(=O)N2CCCC[C@H]2C(=O)O[C@H]([C@H](C)C[C@@H]2CC[C@@H](O)[C@H](OC)C2)CC(=O)[C@H](C)/C=C(\C)[C@@H](O)[C@@H](OC)C(=O)[C@H](C)C[C@H](C)/C=C/C=C/C=C/1C [sirolimus, Sirolimus] has a concentration at 24 h ([1]; human, whole blood, iv, 2.5 mg/m^2/day, C24 trough concentration, patients who developed grade III–IV aGVHD (n = 10), mean ± SD) of 6.1 ± 2.9 ng/mL, an AUC(0-t) [1, 7] of 401 ± 316 ng·h/mL and a CL/F [1, 7] of 3.17 mL/min/kg. It also gave a Tmax [1, 7] of 3.3 ± 1.6 h, a Vd/F [1, 7] of 5.78 ± 5.7 L/kg and a concentration at 24 h ([1]; human, whole blood, oral, 2.5 mg/m^2/day, C24 (trough concentration at 24 hours after oral dosing), i.v. Fluconazole (n = 16), mean ± SD (range)) of 10 ng/mL. It also gave a concentration at 24 h ([1]; human, whole blood, oral, 2.5 mg/m^2/day, C24 trough concentration, patients with grade 0-II aGVHD (n = 22), mean ± SD) of 9.4 ± 5.5 ng/mL, a concentration at 0 h ([1]; human, whole blood, oral, 2.5 mg/m^2/day, i.v. Fluconazole (n = 16), mean ± SD (range)) of 8 ng/mL and a Half-life ([1]; human, whole blood, oral, 2.5 mg/m^2/day, Mean t1/2, patients age ≤12 years) of 21.8 h. The concentration at 24 h ([1]; human, whole blood, po, 2.5 mg/m^2/day, C24 (trough concentration at 24 hours after oral dosing), All (n = 33), mean ± SD (range)) was 9.1 ± 5.3 ng/mL, the concentration at 24 h ([1]; human, whole blood, po, 2.5 mg/m^2/day, C24 (trough concentration at 24 hours after oral dosing), No Fluconazole (n = 11), mean ± SD (range)) was 8 ng/mL and the concentration at 24 h ([1]; human, whole blood, po, 2.5 mg/m^2/day, C24 (trough concentration at 24 hours after oral dosing), Oral Fluconazole (n = 6), mean ± SD (range)) was 8.6 ng/mL. For the same compound, the concentration at 0 h ([1]; human, whole blood, po, 2.5 mg/m^2/day, All (n = 33), mean ± SD (range)) was 8 ± 4.6 ng/mL, the concentration at 0 h ([1]; human, whole blood, po, 2.5 mg/m^2/day, No Fluconazole (n = 11), mean ± SD (range)) was 6.8 ng/mL and the concentration at 0 h ([1]; human, whole blood, po, 2.5 mg/m^2/day, Oral Fluconazole (n = 6), mean ± SD (range)) was 11 ng/mL. The “Difference between trough concentrations (C24 - C0)/C24, average” value ([1]; n = 33, not significantly greater than 0 (P = .75)) was 10.3%, the “Dose-normalized C24” value ([1]; patients not receiving fluconazole) was 2.5 ± 1.7 ng/mL/mg and 2.51 ± 1.72 ng/mL/mg and the “Dose-normalized C0” value [1, 8] was 3.9 ± 2.5 ng/mL/mg and 3.93 ± 2.5 ng/mL/mg. For the same compound, the “Dose-normalized C24” value [1, 8] was 4.8 ± 3.3 ng/mL/mg and 4.8 ± 3.34 ng/mL/mg, the C24 trough concentration ([1]; patients who developed grade III–IV aGVHD (n = 10), mean ± SD) was 6.11 ± 2.89 ng/mL and the C24 trough concentration ([1]; patients with grade 0-II aGVHD (n = 22), mean ± SD) was 9.42 ± 5.52 ng/mL. For the same compound, the “Clearance (Cl/F), population estimate” value ([2]; 37 patients, 333 concentrations, estimate ± standard error) was 6.66 ± 1.10 L/h, the CL/F [2, 7] was 2.83 mL/min/kg and the Vd [2, 7] was 26.9 ± 7.7 L. For the same compound, the “Absorption rate constant (ka)” value [2, 9] was 0.0535 ± 0.0104 h⁻¹, the “Intercompartment clearance (Q)” value [2, 9] was 4.62 ± 2.00 L/h and the “Volume of distribution of peripheral compartment (Vp)” value [2, 9] was 630 ± 171 L. The “Share of sirolimus whole-blood concentrations >12 ng/mL” value ([3]; above target range) was 12%, the “Share of sirolimus whole-blood concentrations <3 ng/mL” value ([3]; below target range) was 9% and the “Share of sirolimus whole-blood (trough) concentrations within target range” value ([3]; target range 3–12 ng/mL, with therapeutic drug monitoring) was 79%. For the same compound, the “AUC0–24” value ([4]; adult kidney transplant recipients) was 173 ± 50 ng·h/mL, the Half-life ([4]; pediatric liver transplant recipients on sirolimus and tacrolimus) was 21.2 ± 14.1 h and the “AUC0–24” value ([4]; pediatric liver transplant recipients) was 168.3 ± 86.5 ng·h/mL. The t1/2 ([4]; 1 month posttransplantation) was 9.7 h, the t1/2 ([4]; 3 months posttransplantation) was 10.8 h and the “AUC0–24” value ([4]; pediatric small bowel transplant recipients) was 177.4 ± 72.1 ng·h/mL. For the same compound, the Half-life ([4]; small bowel transplant recipients on sirolimus and tacrolimus) was 19.3 ± 5.6 h, the “Cumulative incidence of grade III–IV aGVHD” value [5, 10] was 21% and the “Cumulative incidence of grade II–IV aGVHD” value [5, 10] was 38%. The “Subjects who developed thrombotic microangiopathy” value [5, 11] was 3 subjects and the “Subjects who developed veno-occlusive disease of liver” value [5, 11] was 7 subjects.
For OC(Cn1cncn1)(Cn1cncn1)c1ccc(F)cc1F [Fluconazole], the “In vitro CYP3A4 inhibition, rank among azoles” value [6] is listed as “weakest in vitro inhibitor of CYP3A4”.
